# Laboratory results as given in patent US20160310454A1, “LIVER X RECEPTOR AGONISTS IN THE TREATMENT OF EMPHYSEMA” (priority 2013, published 2016).
# Assays:
# [1] = test system: human peripheral blood monocytes differentiated to macrophages, 5% CSE; experiment: Human monocyte-derived macrophages treated with 5% CSE with or without LXR agonist; type: cell-based; conditions: LXR agonist 3 μM
# Text: FIG. 21. Downregulation of ABC transporters in Chronic Obstructive Pulmonary Disease (COPD) as potential therapeutic target with LXR agonist. (A.) (Left) mRNA expression analysis of ABCA1 G1 in lungs of patients with moderate (after lung volume reduction) and severe COPD (after lung transplantation) and (Right) mRNA expression analysis of ABCA1/G1 in lungs of patients with moderate and severe COPD (n=7). (B.) mRNA analysis of ABCA1, ABCG1, MMP9, (C.) MMP-2 and 9 activity assayed by gelatin zymography in human peripheral blood monocytes differentiated to macrophages in vitro by 3 days treatment with M-CSF (10Ong/m1). After differentiation process human macrophages were treated with 5% CSE with or without LXR agonist (T0901317-Cayman) treatment in 3 μM concentration. β-Actin was used as a housekeeping gene control for RT-PCR. Values are presented as statistically significant when *p<0.05, **p<0.01, ***p<0.001 when compared to controls and #p<0.05 compared Co LXR treated human macrophages.
# To prepare cigarette (CSE), the smoke from one cigarette (1.1 mg of nicotine, 15 mg of tar) was passed through 25 mls of phosphate buffered saline (PBS) (Mercer et al., 2004). The pH of the extracted solution was adjusted to 7.4 and then filtered (Mercer et al., 2004). CSE was added to the media at concentrations up to 5% (vol/vol) (Mercer et al., 2004).
# [2] = test system: macrophage ABCA1-deficient mice exposed to cigarette smoke for 10 days; experiment: Acute 10 day cigarette smoke exposure of macrophage ABCA1-deficient mice with treatment; type: in vivo, mouse; conditions: 25 mg/kg IP, 10 days smoke exposure
# Procedure: In order to determine if the mechanism identified in vitro contributed to changes in smoke induced lung inflammation in vivo, smoke studies were performed in vivo. […] Through investigation of the smoke-induced regulation of ABCA1, the present disclosure identifies unique pathways that can be targeted to prevent smoking-related emphysema and the progression of lung destruction.
# [3] = test system: macrophage specific ABCA1 KO (ABCA1 Cre-LysM) macrophages treated with 5% CSE; experiment: ABCA1 KO (ABCA1 Cre-LysM) mouse macrophages treated with 5% CSE with or without LXR agonist; type: cell-based
# Procedure: FIG. 14. Effect of LXR dependent ABCA1 reexpression on cigarette smoke induced pro-inflammatory and MMP signaling pathways in macrophages. (A.) Western Blot analysis of JNK phosphorylation (oxidative stress activated MAP kinase), (B.) mRNA expression analysis of TLR4/Myd88 in mouse macrophages treated with 5% CSE with or without LXR agonist (T0901317-Cayman) in 3 μM concentration. (C-E.) mRNA expression analysis of inflammatory cytokines TNFα (C.), IL-1β (D.) and IL-10 (E.) mouse macrophages isolated from bone marrow of WT (ABCA1 fl/fl mice) and macrophage specific ABCA1 KO (ABCA1 Cre-LysM) treated with 5% CSE with or without LXR agonist (T0901317-Cayman) in 3 μM concentration. (F-H.) Analysis of MMP activation mouse macrophages isolated from bone marrow of WT (ABCA1 fl/fl mice) and macrophage specific ABCA1 KO (ABCA1 Cre-LysM) treated with 5% CSE with or without LXR agonist (T0901317-Cayman) in 3 μM concentration. MMP-9 and -13 mRNA expression (F.), MMP-9 mRNA expression with LXR agonist treatment, (H.) MMP-9 activity assayed by gelatin zymography. β-Actin was used as a housekeeping gene control for RT-PCR. Values are presented as statistically significant when *p<0.05, **p<0.01, ***p<0.001 when compared to controls and #p<0.05 compared to 5% CSE.
# In these experiments both mouse peritoneal and mouse bone marrow derived macrophages (BMdM) were utilized. Mouse peritoneal macrophages were isolated from peritoneal cavities of 3% thioglycolate injected mice on the 5th day from injection. To compare expression of genes in vitro and in vivo peritoneal macrophages were isolated from mice exposed to room air and cigarette smoke. For in vitro analysis cells were seeded on culture plates for 24 h and then treated with CSE. For in vivo analysis cells were collected from peritoneal cavity and mRNA was directly isolated. […] The obtained cells were then counted (usually 100-150 million cells per mouse) and centrifuged for 5 min at 2600 rpm. […] Approximately after 7-10 days of plating the cells become fully differentiated into macrophages and were ready for subsequent experiments. […]
smiles,measurement,setting,value
"O=S(=O)(c1ccccc1)N(CC(F)(F)F)c1ccc(C(O)(C(F)(F)F)C(F)(F)F)cc1 [T0901317, N-(2,2,2-trifluoroethyl)-N-[4-[2,2,2-trifluoro-1-hydroxy-1-(trifluoromethyl)ethyl]phenyl]-benzenesulfonamide]","ABC transporter levels (ABCA1, ABCG1 mRNA)",[1],restored
same,CSE increased MMP-9 expression and activity,[1],inhibited
same,pulmonary inflammation (total cell counts in BAL),[2],did not resolve
same,"decrease in MMP-9 activity and expression, MMP-13 expression and TNFα expression",[3]; ABCA1 KO macrophages,not observed
same,reversal of induction of cytokines by 5% CSE,"[3]; ABCA1 macrophage knockout, LXR agonist 3 μM",not able to reverse
same,reduction of mRNA and activity of MMP-9: dependence on ABCA1,"[3]; WT versus ABCA1 KO macrophages, 5% CSE, LXR agonist 3 μM",only in the presence of the ABCA1 transporter
